From BigSolDB 2.1

Oc1c(Cl)cc(Cl)c2cccnc12
solubility (mole fraction)
Settings	293.15 K	298.15 K	303.15 K	308.15 K	313.15 K	318.15 K	323.15 K	328.15 K	333.15 K
in 1,4-dioxane	0.00523	0.0062	0.00736	0.0089	0.0106	0.0123	0.0146	0.017	0.0193
in DMF	0.0132	0.016	0.0194	0.024	0.0294	0.0347	0.0408	0.0478	0.0555
in DMSO	0.00296	0.00378	0.0048	0.00633	0.00793	0.00997	0.0123	0.0154	0.0188
in NMP	0.00576	0.00683	0.00823	0.00963	0.0113	0.0137	0.0162	0.0188	0.022
in water	1.02e-06	1.48e-06	2.03e-06	2.82e-06	3.82e-06	5e-06	6.86e-06	8.91e-06	1.15e-05
